What was measured:
[1] = Regeneration of drug from bone powder-bound prodrug; assay type: in vitro ADME; conditions: for effect of the medium (presence or absence of serum) on regeneration rate: PBS vs serum
Procedure: Amounts of drug “regenerated” from the phosphonated parent prodrug were measured as follows. Washed bone powder-bound prodrugs from the above section were resuspended in 400 μL PBS or in 400 μL 50% (v/v in PBS) human or rat serum. […] Methanol (5× volume relative to supernatant) was added to each supernatant and the mixture was vortexed on a floor model vortex for 15 min to extract freed fluoroquinolone. The mixture was then centrifuged at 10 000 rpm for 15 min to pellet the insoluble material. The supernatant containing the extracted fluoroquinolone was recovered and evaporated to dryness in a speed vac. The dried pellets were resuspended in PBS and the amount of fluoroquinolone was determined by fluorescence measurements as described above. The percentage of drug regenerated was deduced from the difference between amount of bound prodrug and the amount of regenerated drug. The identity of regenerated drug was deduced by MIC determination; MICs of regenerated material matched those of parent drugs but not those of prodrugs.

[2] = Bone powder binding, fluorometric detection; conditions: for Binding to bone (%) Fluorescence: 1 mg/ml compound, bone meal powder 10 mg/ml in PBS, 37° C., 1 h; for binding to osseous matter, in words: bisphosphonates bearing three hydroxy groups
Procedure: The ability of the example molecules to bind to bone powder was established in two parallel fashions, using either LC/MS or fluorometric detection. For LC/MS detection, a stock solution (5 mM) of the compound to be tested was added to 0.1M Tris-HCl buffer pH 7, 0.15M NaCl to reach a final concentration of 100 μM. Triplicate samples (1 mL) of the compound solutions were intensively shaken for 10 min with or without 25 mg of fresh or 20 mg of vacuum dried ground rat tibia bone. The samples were then centrifuged for 15 min at 10 000 g. The presence of unbound compound was measured by injection of 30 μL of each of the supernatants into an Agilent 1100™ LC/UV system. For fluorometric detection, an individual compound was dissolved in PBS or water (compound 52) and resuspended at a concentration of 1 mg/ml in a slurry of bone meal powder (Now Foods, Bloomingdale, Ill., USA) in PBS at 10 mg/ml. The suspension of drug/prodrug in bone meal powder was incubated at 37° C. for 1 h to allow for binding, and centrifuged at 13 000 rpm for 2 min, before recovering the supernatant. The bone meal powder pellet was then washed three times with 1 ml of PBS. All supernatants were saved and assessed for fluoroquinolone content by fluorescence measurements at excitation/emission wavelengths of 280/465 nm. The amount of fluoroquinolone was determined from standard curves generated for each experiment. Amount of drug/prodrug bound to bone powder was deduced from the difference between the input amount (typically 1 mg) and the amount recovered in the supernatants after binding. In all binding experiments, >99% of input drug was recovered in the supernatant for the parent drugs.

Hela cells = test: Cytotoxicity assay (MTS reduction); assay type: cell-based; conditions: concentrations up to 100 μM, 18 h, MTS reagent; data not shown
Procedure: Selected compounds were also tested for their ability to inhibit growth of mammalian cells so as to ascertain levels of cytotoxicity to the mammalian host, via an assay measuring the biological reduction of the inner salt of (3-(4,5-dimethylthiazol-2-yl)-5-(3-carboxymethoxyphenyl)-2-(4-sulfophenyl)-2H-tetrazolium (MTS reagent). Assays were performed in 96-well microtiter plates. Briefly, compounds at 100, 50, 25, and 12.5 μM concentrations were incubated with 2×10^4 Hela cells per well in Dulbecco's Modified Eagle Medium (Invitrogen Corporation) containing 1% Bovine Growth Serum (HyClone) for 18 h at 37° C. under 5% CO2.

S. aureus ATCC 13709 = test: Prophylactic model of bone infection in rats; assay type: in vivo, rat; conditions: for Measured bacterial titer (Log CFU/g of bone) Test compound: 2 days prior to infection; for prophylactic effect in rat model of bone infection, in words: Table 4 and FIGS. 6-8, doses as in Table 4
Procedure: To determine the activity in vivo of bisphosphonated prodrugs of fluoroquinolones, compounds 52 and 107, derivatives of parent compounds moxifloxacin 3 (for 52), and compounds 39, 44, 49, 54, 121, 129, 141, 145, 149, derivatives of parent compound gatifloxacin 15, were used in a prophylactic model for infection. Specifically, S. aureus ATCC 13709 cells were grown overnight at 37° C. in brain heart infusion broth (BHIB). Cells were subcultured into fresh BHIB and incubated for 4 to 5 h at 37° C. The cells were washed twice with phosphate-buffered saline (PBS) and resuspended in BHIB supplemented with 10% (vol./vol.) fetal bovine serum at a density of approximately 10^10 colony forming units (CFU)/ml (based upon turbidimetry). The suspension was aliquoted and a portion was used to check the CFU count. The culture was stored frozen (−80° C.) and was used without subculture. For use as an inoculum the culture was thawed, diluted in PBS and kept in an ice bath until it was used.
Animals were infected as described by O'Reilly et al. (Antimicrobial Agents and Chemotherapy (1992), 36(12): 2693-97) to generate the bone infection. Female CD rats (age, 57 to 70 days; n=5/group; Charles River, St-Constant, Canada) were anaesthetized by isofluorane before and during the surgery. Following complete induction of anesthesia, the rat was placed ventral side up and hair was shaved from the surgical site. The skin over the leg was cleaned and disinfected (proviodine-ethanol 70%). A longitudinal incision below the knee joint was made in the sagital plane. The incision was made over the bone below the “knee joint” (tibia head or condyle) but not completely extending to the ankle. A high speed drill fitted with a 2 mm bulb bit was used to drill a hole into the medullar cavity of the tibia. Rats were injected intra-tibially with 0.05 ml 5% sodium morrhuate (sclerosing agent) and then with 0.05 ml of S. aureus suspension (ca. 5×10^5 CFU/rat). The hole was sealed by applying a small amount of dry dental cement which immediately absorbs fluids and adheres to the site. The wound was closed using 3 metal skin clips. Moxifloxacin 3 (as a positive control) was injected once at 10 mg/kg intravenously 1 h postinfection in saline, while the fluoroquinolone prodrugs (prepared in 0.9% saline) were injected as a single intravenous bolus dose at different time points prior to the infection. For comparison, the parent drug (moxifloxacin 3 or gatifloxacin 15) was also injected intravenously once at a molar equivalent dose at the same time point prior the infection.
Infected rats were sacrificed by CO2 asphyxiation 24 h postinfection to monitor the bacterial CFU count. Infected tibiae were removed, dissected free of soft tissue, and weighed. The bones were ground using a metal ball mill, resuspended in 5 ml 0.9% NaCl, serially diluted and processed for quantitative cultures. For compounds 39, 44, 49, 54, 141, 145, 149, 1 ml of the 0.9% NaCl solution was added to 50 mg of charcoal before serial dilutions. Treatment efficacies were measured in terms of Log viable bacteria (Log CFU per gram of bone). The results obtained for each group of rats were evaluated by calculating the mean Log CFU and standard deviation. The limit of detection is 2 Log CFU/g of bone. Statistical comparisons of viable bacterial counts for the different treated and untreated groups were performed with Dunnett's multiple-comparison test. Differences were considered significant when the P value was <0.05 when comparing treated infected animals to the untreated infected ones.

| Binding to bone (%) Fluorescence [2] [%] | effect of the medium (presence or absence of serum) on regeneration rate [1] | SMILES | cytotoxicity (Hela cells) | further results |
| --- | --- | --- | --- | --- |
| 99.6 | – | O=C(O)c1cn(C2CC2)c2cc(N3CCN(CC(P(=O)(O)O)P(=O)(O)O)CC3)c(F)cc2c1=O [Compound 8, 7-(4-(2,2-bisphosphonoethyl)piperazin-1-yl)-1-cyclopropyl-6-fluoro-1,4-dihydro-4-oxoquinoline-3-carboxylic acid] | no signs of any cytotoxicity | drug released from the bone matter after 24 h, in words ([1]; 24 h, medium not stated): not measurable amount of drug released |
| 90.4 | fairly similar rates | COc1c(N2CCNC(C)C2)c(F)cc2c(=O)c(C(=O)OCC(=O)N(C)C(P(=O)(O)O)P(=O)(O)O)cn(C3CC3)c12 (centres unmarked) [Compound 82, (N-Methyl-1,1-Bisphosphonomethylcarbamoyl)methyl 7-(3-methylpiperazin-1-yl)-1-cyclopropyl-6-fluoro-1,4-dihydro-8-methoxy-4-oxoquinoline-3-carboxylate] | – | – |
| – | – | COc1c(N2C[C@@H]3CCCN(CC(P(=O)(OC)OC)P(=O)(OC)OC)[C@@H]3C2)c(F)cc2c(=O)c(C(=O)O)cn(C3CC3)c12 [Compound 4, 7-((4aS,7aS)-1-(2,2-bis(dimethylphosphono)ethyl)-octahydropyrrolo[3,4-b]pyridin-6-yl)-1-cyclopropyl-6-fluoro-1,4-dihydro-8-methoxy-4-oxoquinoline-3-carboxylic acid] | no signs of any cytotoxicity | – |
| 98.9 | fairly similar rates | COc1c(N2C[C@@H]3CCCN[C@@H]3C2)c(F)cc2c(=O)c(C(=O)Oc3ccc(C(P(=O)(O)O)P(=O)(O)O)cc3)cn(C3CC3)c12 [Compound 85, 4-(Bisphosphonomethyl)phenyl 1-cyclopropyl-6-fluoro-1,4-dihydro-7-((4aS,7aS)-octahydropyrrolo[3,4-b]pyridin-6-yl)-8-methoxy-4-oxoquinoline-3-carboxylate] | – | – |
| – | – | CCOP(=O)(OCC)C(NC(=O)COC(=O)c1cn(C2CC2)c2c(OC)c(N3CCN(C(=O)OC(C)(C)C)C(C)C3)c(F)cc2c1=O)P(=O)(OCC)OCC (centres unmarked) [Compound 53, (1,1-Bis(diethylphosphono)methylcarbamoyl)methyl 7-(4-(tert-butoxycarbonyl)-3-methylpiperazin-1-yl)-1-cyclopropyl-6-fluoro-1,4-dihydro-8-methoxy-4-oxoquinoline-3-carboxylate] | no signs of any cytotoxicity | – |
| – | – | COC(=O)c1cn(C2CC2)c2c(OC)c(N3C[C@@H]4CCCN[C@@H]4C3)c(F)cc2c1=O [Compound 154, Methyl 1-cyclopropyl-6-fluoro-1,4-dihydro-7-((4aS,7aS)-octahydropyrrolo[3,4-b]pyridin-6-yl)-8-methoxy-4-oxoquinoline-3-carboxylate] | no signs of any cytotoxicity | – |
| 99.0 | fairly similar rates | COc1c(N2C[C@@H]3CCCN[C@@H]3C2)c(F)cc2c(=O)c(C(=O)OCC(=O)Nc3ccc(C(P(=O)(O)O)P(=O)(O)O)cc3)cn(C3CC3)c12 [Compound 73, (4-Bisphosphonomethylphenylcarbamoyl)methyl 1-cyclopropyl-6-fluoro-1,4-dihydro-7-((4aS,7aS)-octahydropyrrolo[3,4-b]pyridin-6-yl)-8-methoxy-4-oxoquinoline-3-carboxylate] | – | – |
| – | – | COP(=O)(OC)C(CN1CCN(c2cc3c(cc2F)c(=O)c(C(=O)O)cn3C2CC2)CC1)P(=O)(OC)OC [Compound 7, 7-(4-(2,2-bis(dimethylphosphono)ethyl)piperazin-1-yl)-1-cyclopropyl-6-fluoro-1,4-dihydro-4-oxoquinoline-3-carboxylic acid] | no signs of any cytotoxicity | – |
| 79.2 | fairly similar rates | COc1c(N2CCNC(C)C2)c(F)cc2c(=O)c(C(=O)Oc3ccc(C(P(=O)(O)O)P(=O)(O)O)cc3)cn(C3CC3)c12 (centres unmarked) [Compound 87, 4-(Bisphosphonomethyl)phenyl 7-(3-methylpiperazin-1-yl)-1-cyclopropyl-6-fluoro-1,4-dihydro-8-methoxy-4-oxoquinoline-3-carboxylate] | – | – |
| 63.7 | – | COc1c(N2CCN(Cc3oc(=O)oc3-c3ccc(P(=O)(O)CP(=O)(O)O)cc3)C(C)C2)c(F)cc2c(=O)c(C(=O)O)cn(C3CC3)c12 (centres unmarked) [Compound 129, 1-Cyclopropyl-6-fluoro-1,4-dihydro-8-methoxy-7-(3-methyl-4-((2-oxo-5-(4-(phosphonomethylphosphinoyl)phenyl)-1,3-dioxol-4-yl)methyl)piperazin-1-yl)-4-oxoquinoline-3-carboxylic acid] | – | Measured bacterial titer (Log CFU/g of bone) Test compound (S. aureus ATCC 13709; 10.75 mg/kg IV): 6.14 ± 1.05 Log CFU/g of bone; prophylactic effect in rat model of bone infection, in words (S. aureus ATCC 13709): unable to produce a positive result in vivo; binding to osseous matter, in words [2]: less effectively bound |

| SMILES | Binding to bone (%) Fluorescence [2] [%] | effect of the medium (presence or absence of serum) on regeneration rate [1] | cytotoxicity (Hela cells) | further results |
| --- | --- | --- | --- | --- |
| COc1c(N2CCN(C(=O)CC(C)(C)c3cc(P(=O)(O)CP(=O)(O)O)ccc3OC(=O)C(C)C)C(C)C2)c(F)cc2c(=O)c(C(=O)O)cn(C3CC3)c12 (centres unmarked) [Compound 145, 7-(4-(3-(2-(2,2-dimethylacetoxy)-5-((phosphonomethyl)phosphonoyl)phenyl)-3-methylbutanoyl)-3-methylpiperazin-1-yl)-1-cyclopropyl-6-fluoro-1,4-dihydro-8-methoxy-4-oxoquinoline-3-carboxylic acid] | 76.0 | – | – | Measured bacterial titer (Log CFU/g of bone) Test compound (S. aureus ATCC 13709; 47.2 mg/kg IV): 4.69 ± 0.78 Log CFU/g of bone; prophylactic effect in rat model of bone infection, in words (S. aureus ATCC 13709): unable to produce a positive result in vivo; binding to osseous matter, in words [2]: less effectively bound |

From patent US20080287396A1, “Phosphonated Fluoroquinolones, Antibacterial Analogs Thereof, and Methods for the Prevention and Treatment of Bone and Joint Infections” (TARGANTA THERAPEUTICA INC., priority 2005, published 2008)
